{
  "source": "paper PMC7370187",
  "about": "“Screening of an Epigenetic Drug Library Identifies 4-((hydroxyamino)carbonyl)-N-(2-hydroxyethyl)-N-Phenyl-Benzeneacetamide that Reduces Melanin Synthesis by Inhibiting Tyrosinase Activity Independently of Epigenetic Mechanisms” (International Journal of Molecular Sciences, 2020)",
  "key": {"[1]": {"tested_on": "TYR, TYRP1, DCT and MITF mRNA in B16-F10 cells", "experiment": "qRT-PCR analysis of melanogenic gene mRNA", "assay_type": "cell-based, murine", "settings": "100 nM α-MSH, 12 h, normalized to GAPDH", "method": "After B16-F10 cells were treated with drug and/or α-MSH, cellular RNA was extracted using an RNeasy kit (Qiagen, Valencia, CA, USA) and the complementary DNA (cDNA) was synthesized by reverse transcription using a High-Capacity cDNA Archive Kit (Applied Biosystems, Foster City, CA, USA). qRT-PCR was conducted using a StepOnePlus™ Real-Time PCR System (Applied Biosystems). The reaction mixture (20 μL) comprised SYBR® Green PCR Master Mix (Applied Biosystems), 60 ng cDNA, and 2 pmol gene-specific primer sets (Macrogen, Seoul, Korea).\nThe reaction protocol was as follows: initial incubation at 50 °C for 2 min; DNA polymerase activation at 95 °C for 15 min; and annealing and extension at 60 °C for 1 min. In each PCR run, the melting curve was checked to confirm the homogeneity of the PCR product. The mRNA expression levels of the gene of interest were determined using the comparative Ct method, and normalized to the internal reference GAPDH [59]. In this method, Ct is defined as the number of PCR cycles required for the signal to exceed the threshold. Fold changes in the test group compared to the control group were calculated as 2^−ΔΔCt, where ΔΔCt = ΔCt(test) − ΔCt(control) = [Ct(gene, test) − Ct(reference, test)] − [Ct(gene, control) − Ct(reference, control)]."}, "[2]": {"tested_on": "tyrosinase (TYR) activity in B16-F10 cells", "experiment": "Cellular TYR activity assay (lysates of treated cells)", "assay_type": "cell-based, murine", "settings": "100 nM α-MSH, 24 h, cell lysates", "method": "After B16-F10 cells were treated with drug and/or α-MSH, the TYR activity of cell extracts was determined by an indirect spectrophotometric method to monitor dopachrome formation with L-tyrosine plus L-DOPA as the substrates. Total cellular protein was extracted from the treated cells using a lysis buffer of 10 mM Tris-HCl buffer (pH 7.4) containing 120 mM NaCl, 25 mM KCl, 2.0 mM EDTA, 1.0 mM EGTA, 0.5% Triton X-100, and a protease inhibitor cocktail (Roche, Mannheim, Germany) at 4 °C, followed by centrifugation at 13,000× g for 15 min. The TYR activity assay mixture (200 μL) consisting of 100 mM sodium phosphate buffer (pH 6.8), 1.0 mM L-tyrosine, and 42 μΜ L-DOPA was incubated with 40 μg cellular protein extract at 37 °C, and changes in absorbance at 475 nm over time were measured using a Spectrostar Nano microplate reader."}, "B16-F10 cells": {"tested_on": "B16-F10 cells", "experiment": "Melanin content assay (extracellular and intracellular)", "assay_type": "cell-based, murine", "settings": "K8 1–10 µM, 100 nM α-MSH", "method": "The intracellular melanin retained in cells and extracellular melanin secreted from cells were separately determined. B16-F10 cells were plated in 6-well plates (1.2 × 10^4 cells per well), cultured for 24 h, treated with a test drug at various concentrations for 60 min, and stimulated with 100 nM α-MSH for 72 h. The conditioned medium was evaluated to determine the extracellular melanin content. Adherent cells were extracted with 10% dimethyl sulfoxide solution containing 1.0 M sodium hydroxide at 60 °C for 60 min, and melanin content in the extract was estimated by measuring the absorbance at 400 nm and normalized to the total protein content of the cells."}, "[3]": {"tested_on": "B16-F10 murine melanoma cells", "experiment": "Screening assay for overall melanin synthesis (OD 400 nm) in α-MSH-stimulated cells", "assay_type": "cell-based", "settings": "100 nM α-MSH, 72 h", "method": "For the screening assay, B16-F10 cells were plated in 96-well plates (3 × 10^3 cells per well) and cultured for 24 h. The cells were then treated with a test drug at 1.0 μM for 60 min, and subsequently stimulated with 0.1 μM α-MSH for 72 h. Overall melanin synthesis was estimated by measuring the absorbance of each well (cells plus medium, without cell lysis) at 400 nm using a Spectrostar Nano microplate reader (BMG LABTECH GmbH, Ortenberg, Germany)."}, "[4]": {"experiment": "Copper chelating activity assay (pyrocatechol violet)", "assay_type": "physicochemical", "settings": "200 μM test compound, 200 μM copper ions, 200 μM pyrocatechol violet, absorbance 632 nm", "method": "Copper chelating activity was determined by using pyrocatechol violet (Sigma-Aldrich). […] The reaction mixture containing a potential chelator at varied concentrations, 200 μM CuSO4, and 200 μM pyrocatechol violet was incubated at 25 °C for 20 min, and its absorption spectra were recorded using a Shimadzu UV-1650PC spectrophotometer (Shimadzu Corporation, Kyoto, Japan). Copper chelating activity was evaluated by the change in the absorbance of pyrocatechol violet at 632 nm."}},
  "note": "“Also recorded” adds a separate entry of the source.",
  "data": [
    {"smiles": "O=C(NO)c1ccc(CC(=O)N(CCO)c2ccccc2)cc1", "note": "[K8, 4-((hydroxyamino)carbonyl)-N-(2-hydroxyethyl)-N-phenyl-benzeneacetamide]", "values": [
      {"measurement": "DCT mRNA level", "setting": "[1]", "value": "not significantly affected"},
      {"measurement": "MITF mRNA expression", "setting": "[1]", "value": "not significantly affected"},
      {"measurement": "TYR mRNA level", "setting": "[1]", "value": "not significantly affected"},
      {"measurement": "TYRP1 mRNA level", "setting": "[1]", "value": "not significantly affected"},
      {"measurement": "cellular TYR activity", "setting": "[2]", "value": "attenuated; also recorded: only partially lowered by 10 µM K8"},
      {"measurement": "intracellular melanin content, normalized for total cellular protein", "setting": "B16-F10 cells; cell extracts", "value": "suppressed by K8 in a dose-dependent manner"},
      {"measurement": "extracellular melanin content, normalized for total cellular protein", "setting": "B16-F10 cells; conditioned medium", "value": "suppressed by K8 in a dose-dependent manner"},
      {"measurement": "relative melanin synthesis (OD 400 nm)", "setting": "[3]; drug 1.0 μM", "value": "markedly inhibited cellular melanin synthesis"},
      {"measurement": "melanin synthesis (OD 400)", "setting": "[3]; drug at varied concentrations", "value": "attenuated by both drugs in a dose-dependent manner; also recorded: suppressed almost all melanin synthesis"},
      {"measurement": "copper ions chelated", "setting": "[4]", "value": 27, "unit": "%"}
    ]}
  ]
}
